Experimental data published in patent US7615359B2, “Copolymer 1 related polypeptides for use as molecular weight markers and for therapeutic use” (Yeda Research and Development Co., Ltd., priority 1998, dated 2009).

Assays:
L-22-1 T cell clone = assay: Proliferation of Cop 1 specific T cell line (3H-thymidine uptake); conditions: 10 µg antigen; relative to Cop 1
[1] = system: anti-Cop-1 (5-7-2) monoclonal antibody; assay: RIA: binding of anti-Cop 1 monoclonal antibody to coated antigen; conditions: relative to Cop 1 reference standard; 2 µg/ml coating antigen
[2] = system: SC-103 human Cop 1 specific T cell clone; assay: Proliferation of Cop 1 specific T cell line (3H-thymidine uptake); conditions: 10 µg antigen; relative to Cop 1
[3] = system: anti-Cop-1 (3-3-9) monoclonal antibody; assay: RIA: binding of anti-Cop 1 monoclonal antibody to coated antigen; conditions: relative to Cop 1 reference standard; 2 µg/ml coating antigen
[4] = system: anti-Cop-1 (3-1-45) monoclonal antibody; assay: as above; conditions: relative to Cop 1 reference standard; 2 µg/ml coating antigen
[5] = system: BALB/c-Ts-Cop-1 T cell line; assay: Proliferation of Cop 1 specific T cell line (3H-thymidine uptake); conditions: 10 µg antigen; relative to Cop 1
[6] = system: experimental allergic encephalomyelitis (EAE) in (SJL/JxBALB/c)FI mice; assay: Blocking of experimental allergic encephalomyelitis (EAE) by injection with complete adjuvant; format: in vivo, mouse; conditions: for Incidence of EAE: antigen included in the encephalitogenic inoculum, animals with EAE/animals; for % Blocking: blocking of EAE vs control inoculum; for Mean Score: disease score 0 (healthy) to 5 (dead); for Mean Onset: animals not protected, onset = day of disease score of at least 1
Text: Blocking of Experimental Allergic Encephalomyelitis—To test the physiological activity of TV-markers, protection from experimental allergic encephalomyelitis (EAE) was investigated in mice. Injection of Copolymer 1 in complete Freund's adjuvant together with the encephalitogen can block EAE essentially as described in Aharoni et al., 17 EUR. J. IMMUNOL. 23 (1993). Other researchers have observed that the therapeutic effect of Copolymer 1 in multiple sclerosis patients is also associated with the induction of TH2 cells. Lahat et al., 244 J. NEUROL. 129 (1997). In this example, EAE is blocked by different polypeptides of the present invention.
Pertussis toxin (0.25 ml, 250 ng, Sigma) is injected intravenously, immediately after and 48 hr later. […] 2156 (1979).
EAE blocking by injection with complete adjuvant—Each antigen being tested was included in the encephalitogenic inoculum. […] Also shown is the mean onset of EAE in animals which were not protected. Disease intensity is scored daily in mice with a score of zero (0=healthy) to five (5=dead).

| Binding of mAb anti-Cop-1 (5-7-2), % Cop1 binding [1] [%] | Binding of mAb anti-Cop-1 (3-3-9), % Cop1 binding [3] [%] | Binding of mAb anti-Cop-1 (3-1-45), % Cop1 binding [4] [%] | Molecule | 3H-Thymidine incorporation, % Cop1, L-22-1 (L-22-1 T cell clone) [%] | 3H-Thymidine incorporation, % Cop1, SC-103 [2] [%] | 3H-Thymidine incorporation, % Cop1, BALB/c-Ts-Cop-1 [5] [%] | Incidence of EAE [6] | % Blocking [6] [%] | Mean Score [6] | Mean Onset [6] [days] |
| --- | --- | --- | --- | --- | --- | --- | --- | --- | --- | --- |
| 1 | 0 | 0 | AKKYAKKEKAAKKAYKKEAKAKAAEAAAKEAAYEA [TV-35] | 0 | 0 | 28 |  |  |  |  |
| 82 | 91 | 83 | glatiramer acetate [compound 55296, reference compound] | 106 | 81 | 110 |  |  |  |  |
| 86 | 90 | 85 | glatiramer acetate [compound 55396, reference compound] | 105 | 80 | 105 | 0/10 | 100 | 0 |  |
|  |  |  | AKKYAKKAKAEKAKKAYKAAEAKKAAKYEKAAAEKAAAKEAAYEA [TV-45] |  |  |  | 0/10 | 100 |  |  |
|  |  |  | glatiramer acetate [compound 03494, reference compound] |  |  |  | 0/10 | 100 | 0 |  |
|  |  |  | AKKYAKKAEKAYAKKAKAAKEKKAYAKKEAKAYKAAEAKKKAKAEAKKYAKEAAKAKKEAYKAEAKKYAKAAKAEKKEYAAAEAKKAEAAKAYKAEAAKAAAKEAAYEA (reversed-phase fraction 2 designated TV-109) AKKYAKKAEKAYAKKAKAAKEKKAYAKKEAKAYKAAEAKKKAKAEAKKYAKEAAKAKKEAYKAEAKKYAKAAKAEKKEYAAAEAKKAEAAKAYKAEAAKAAAKEAAYEA |  |  |  | 0/10 | 100 |  |  |
| 37 | 6 | 9 | AKKYAKKEKAYAKKAEKAAKKAEAKAYKAAEAKKKAKAEAKKYAKAAKAEKKEYAAAEAKYKAEAAKAAAKEAAYEA (peptide) AKKYAKKEKAYAKKAEKAAKKAEAKAYKAAEAKKKAKAEAKKYAKAAKAEKKEYAAAEAKYKAEAAKAAAKEAAYEA | 1 | 0 | 52 | 1/9 | 89 |  | 14.0 |
| 76 | 2 | 6 | AKKYAKKEKAYAKKAEKAAKKAEAKAYKAAEAKKKAKAEAKKYAKAAKAEKKEYAAAEAKYKAEAAKKAYKAEAAKAAAKEAAYEA (peptide) AKKYAKKEKAYAKKAEKAAKKAEAKAYKAAEAKKKAKAEAKKYAKAAKAEKKEYAAAEAKYKAEAAKKAYKAEAAKAAAKEAAYEA | 1 | 0 | 44 | 3/10 | 70 |  | 12.0 |
|  |  |  | AKKYAKKEKAYAKAKKAEAKAAKKAKAEAKKYAKAAKAEKKEYAAAEAKYKAEAAKAAAKEAAYEA (peptide) AKKYAKKEKAYAKAKKAEAKAAKKAKAEAKKYAKAAKAEKKEYAAAEAKYKAEAAKAAAKEAAYEA |  |  |  | 6/10 | 40 |  | 11.7 |

| Molecule | Binding of mAb anti-Cop-1 (5-7-2), % Cop1 binding [1] [%] | Binding of mAb anti-Cop-1 (3-3-9), % Cop1 binding [3] [%] | Binding of mAb anti-Cop-1 (3-1-45), % Cop1 binding [4] [%] | 3H-Thymidine incorporation, % Cop1, L-22-1 (L-22-1 T cell clone) [%] | 3H-Thymidine incorporation, % Cop1, SC-103 [2] [%] | 3H-Thymidine incorporation, % Cop1, BALB/c-Ts-Cop-1 [5] [%] | Incidence of EAE [6] | % Blocking [6] [%] | Mean Score [6] | Mean Onset [6] [days] |
| --- | --- | --- | --- | --- | --- | --- | --- | --- | --- | --- |
| AKKYAKKEKAYAKKAEKAAKKAEAKAYKAAEAKKKAEAKYKAEAAKAAAKEAAYEA [TV-56] | 91 | 2 | 6 | 0 | 0 | 59 |  |  |  |  |
